Assay results reported in paper PMC11364104, “Discovery of SARS-CoV-2 papain-like protease (PL^pro) inhibitors with efficacy in a murine infection model” (Science Advances, 2024).
Read-outs that look alike come from different tables or passages of the source.

Tests used:
[1] = target: T1, GABAa1 Receptor (Homo sapiens, UniProt P14867); assay: CEREP ion channel-binding
T1 construct: purchased Eurofins Cerep

[2] = target: T2, Human Cathepsin B (Homo sapiens, UniProt P07858); assay: biochemical
T2 construct: assay run at Reaction Biology Corporation

[3] = target: T3, Human Cathepsin L (Homo sapiens, UniProt P07711); assay: biochemical
T3 construct: assay run at Reaction Biology Corporation
T3 sequence (P07711 114-333): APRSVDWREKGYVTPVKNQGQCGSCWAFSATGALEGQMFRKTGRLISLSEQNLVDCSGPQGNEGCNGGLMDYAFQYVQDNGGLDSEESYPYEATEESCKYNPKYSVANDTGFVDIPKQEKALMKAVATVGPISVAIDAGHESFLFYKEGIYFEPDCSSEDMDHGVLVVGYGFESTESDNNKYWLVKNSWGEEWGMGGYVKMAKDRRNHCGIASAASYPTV

[4] = system: Vero E6 cells; details: read-out: Mean CC50; n=3
[5] = system: AMPA Receptor; assay: CEREP ion channel-binding; details: 30 µM
[6] = target: CYP2D6 (Homo sapiens, UniProt P10635); assay: biochemical
Chain of CYP2D6 (P10635 whole entry): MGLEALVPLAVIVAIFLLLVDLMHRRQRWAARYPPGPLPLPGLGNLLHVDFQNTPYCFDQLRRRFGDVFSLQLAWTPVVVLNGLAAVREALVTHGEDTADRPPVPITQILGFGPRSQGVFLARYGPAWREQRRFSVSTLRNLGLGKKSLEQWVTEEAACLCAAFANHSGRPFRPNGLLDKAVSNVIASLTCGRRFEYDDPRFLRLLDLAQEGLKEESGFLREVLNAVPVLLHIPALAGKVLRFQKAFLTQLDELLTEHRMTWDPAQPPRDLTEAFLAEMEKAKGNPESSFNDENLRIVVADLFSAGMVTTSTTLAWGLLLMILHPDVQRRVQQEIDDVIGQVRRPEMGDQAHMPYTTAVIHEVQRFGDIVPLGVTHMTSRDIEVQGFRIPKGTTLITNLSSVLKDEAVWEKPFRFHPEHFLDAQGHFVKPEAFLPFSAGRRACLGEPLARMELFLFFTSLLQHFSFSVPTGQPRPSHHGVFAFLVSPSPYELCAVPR

[7] = system: L-Type Ca (Nifedipine); assay: CEREP ion channel-binding; details: 30 µM
[8] = system: Sodium (Site 2); assay: CEREP ion channel-binding; details: 30 µM
[9] = system: SARS-CoV-2 strain USA-WA1/2020; assay: dNHBE (human airway epithelial) cell infection model; assay type: cell-based; details: Severe acute respiratory syndrome coronavirus 2, Epithelial cell; dNHBE (human airway epithelial) cells; plaque assay 3 dpi
[10] = target: Human Immunodeficiency Virus-1 protease (Human immunodeficiency virus type 1 group M subtype B, UniProt P04585); assay: biochemical
[11] = in vivo; parameters: species or system mouse; details: for Vd: C57BL6, mouse, iv, 1 mg/kg, read-out: Vdss
[12] = target: T4, Abl Kinase (Homo sapiens, UniProt P00519); assay: CEREP kinase inhibition; assay type: biochemical
T4 construct: purchased Eurofins Cerep
T4 sequence (P00519 whole entry): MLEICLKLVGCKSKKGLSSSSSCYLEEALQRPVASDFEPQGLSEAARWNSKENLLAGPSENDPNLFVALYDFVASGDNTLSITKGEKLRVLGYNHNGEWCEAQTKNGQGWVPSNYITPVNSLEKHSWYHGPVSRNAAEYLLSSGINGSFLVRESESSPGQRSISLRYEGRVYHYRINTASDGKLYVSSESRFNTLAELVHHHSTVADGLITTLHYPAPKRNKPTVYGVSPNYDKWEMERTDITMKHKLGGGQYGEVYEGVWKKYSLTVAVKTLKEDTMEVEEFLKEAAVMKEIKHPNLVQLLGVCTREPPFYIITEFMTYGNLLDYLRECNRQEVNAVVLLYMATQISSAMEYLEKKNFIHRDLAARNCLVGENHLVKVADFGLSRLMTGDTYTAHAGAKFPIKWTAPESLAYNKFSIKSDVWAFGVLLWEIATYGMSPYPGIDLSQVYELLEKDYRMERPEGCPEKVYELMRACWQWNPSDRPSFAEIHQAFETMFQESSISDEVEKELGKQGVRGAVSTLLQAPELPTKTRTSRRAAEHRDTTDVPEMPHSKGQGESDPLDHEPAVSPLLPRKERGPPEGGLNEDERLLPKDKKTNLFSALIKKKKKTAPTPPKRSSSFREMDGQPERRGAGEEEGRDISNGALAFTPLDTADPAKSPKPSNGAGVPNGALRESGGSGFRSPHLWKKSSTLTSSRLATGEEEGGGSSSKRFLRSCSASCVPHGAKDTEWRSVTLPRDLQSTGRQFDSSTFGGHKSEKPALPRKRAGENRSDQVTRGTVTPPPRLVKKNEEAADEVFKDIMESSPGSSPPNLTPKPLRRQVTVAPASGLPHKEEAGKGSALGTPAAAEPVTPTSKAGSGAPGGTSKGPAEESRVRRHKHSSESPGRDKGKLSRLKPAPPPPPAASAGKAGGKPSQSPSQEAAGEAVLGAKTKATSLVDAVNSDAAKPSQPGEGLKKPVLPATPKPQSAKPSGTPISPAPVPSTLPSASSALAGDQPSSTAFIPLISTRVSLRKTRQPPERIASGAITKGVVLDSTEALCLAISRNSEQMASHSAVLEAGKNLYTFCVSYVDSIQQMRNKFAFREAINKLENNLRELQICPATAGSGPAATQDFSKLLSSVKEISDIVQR

[13] = in vivo, Male C57BL6 mouse, 1.0 mg/kg iv, solution, mean n=2
[14] = in vivo, Male C57BL6 mouse, 10 mg/kg po, solution, mean n=2
[15] = mouse Balb c female, PO 15 mg/kg, suspension
[16] = mouse Balb c female, PO 50 mg/kg, suspension
[17] = mouse Balb c female, PO 150 mg/kg, suspension
[18] = mouse C57BL6 male, IV 1 mg/kg, solution
[19] = mouse C57BL6 male, PO 10 mg/kg, solution
[20] = mouse C57BL6 male, PO 30 mg/kg, solution

T1 sequence (P14867 28-456): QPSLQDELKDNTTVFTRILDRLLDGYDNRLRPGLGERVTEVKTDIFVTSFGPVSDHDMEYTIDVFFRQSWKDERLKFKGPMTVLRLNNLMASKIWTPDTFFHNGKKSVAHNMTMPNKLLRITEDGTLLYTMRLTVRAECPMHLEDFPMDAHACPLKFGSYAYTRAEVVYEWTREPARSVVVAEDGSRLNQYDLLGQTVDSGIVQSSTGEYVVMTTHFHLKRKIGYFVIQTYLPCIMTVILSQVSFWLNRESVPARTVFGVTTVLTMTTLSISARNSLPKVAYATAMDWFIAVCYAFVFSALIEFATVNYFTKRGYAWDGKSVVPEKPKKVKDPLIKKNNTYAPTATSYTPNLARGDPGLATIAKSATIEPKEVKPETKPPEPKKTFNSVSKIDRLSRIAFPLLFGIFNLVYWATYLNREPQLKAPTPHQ
T1 sequence (P47870 26-512 partner): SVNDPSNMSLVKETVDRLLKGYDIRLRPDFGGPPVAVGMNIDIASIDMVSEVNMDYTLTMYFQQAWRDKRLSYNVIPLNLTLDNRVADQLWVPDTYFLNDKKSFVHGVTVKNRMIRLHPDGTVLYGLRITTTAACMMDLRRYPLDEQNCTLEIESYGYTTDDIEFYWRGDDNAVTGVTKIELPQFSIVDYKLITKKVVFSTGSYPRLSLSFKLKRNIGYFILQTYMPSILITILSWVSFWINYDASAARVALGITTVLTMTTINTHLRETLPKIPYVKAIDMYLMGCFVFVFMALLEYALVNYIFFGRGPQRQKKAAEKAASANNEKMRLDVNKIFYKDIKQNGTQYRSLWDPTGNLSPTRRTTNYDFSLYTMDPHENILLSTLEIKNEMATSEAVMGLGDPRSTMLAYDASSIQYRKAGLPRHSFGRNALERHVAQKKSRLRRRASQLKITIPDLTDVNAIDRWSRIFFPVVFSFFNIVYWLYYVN
T1 sequence (P18507 40-475 partner): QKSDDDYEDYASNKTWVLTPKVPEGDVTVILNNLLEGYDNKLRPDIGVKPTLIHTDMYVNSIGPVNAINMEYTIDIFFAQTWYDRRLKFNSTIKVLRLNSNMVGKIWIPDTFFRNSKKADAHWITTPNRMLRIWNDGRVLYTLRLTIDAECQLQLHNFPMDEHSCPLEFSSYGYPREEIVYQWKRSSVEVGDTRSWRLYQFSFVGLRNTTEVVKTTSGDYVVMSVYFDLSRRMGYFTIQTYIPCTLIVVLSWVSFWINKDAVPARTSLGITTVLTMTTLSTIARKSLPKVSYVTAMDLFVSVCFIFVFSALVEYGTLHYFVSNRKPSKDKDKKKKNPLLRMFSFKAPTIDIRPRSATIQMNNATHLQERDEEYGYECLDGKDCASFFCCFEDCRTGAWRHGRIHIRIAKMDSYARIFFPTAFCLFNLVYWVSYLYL

SMILES: Cc1ccc(N2CCN(C)CC2)cc1C(=O)NC1(c2cc(-c3cnn(C)c3)nc3ccccc23)CC1 [Compound 4]
- inhibition at 30 µM [1]: 10%
- IC50 [2]: > 100 µM
- IC50 [3]: > 100 µM
- CC50 [4]: 78.7 µM
- % inhibition [5]: 13%
- IC50 [6]: > 30 µM
- % inhibition [7]: -6%
- % inhibition [8]: -15%
- EC50 [9]: 0.0139 µM
- EC90 [9]: 0.0567 µM
- IC50 [10]: > 100 µM
- Oral F ([11]; Male C57BL6 mouse, 10 mg/kg po, solution, mean n=2): 53.10%
- AUC(0-inf) [11, 13]: 708 ng·h/mL
- half-life [11, 13]: 3.29 h
- clearance ([11]; in vivo, Male C57BL6 mouse, 1.0 mg/kg iv, solution, mean n=2, read-out: CLp): 23.7 mL/min/kg
- AUC(0-inf) [11, 14]: 3760 ng·h/mL
- Cmax [11, 14]: 862 ng/mL
- half-life [11, 14]: 2.19 h
- Tmax ([11]; in vivo, Male C57BL6 mouse, 10 mg/kg po, solution, mean n=2, read-out: Tmax): 2 h
- Cmax ([11]; in vivo, mouse Balb c female, PO 15 mg/kg, suspension): 1140 ng/mL
- Cmax ([11]; in vivo, mouse Balb c female, PO 50 mg/kg, suspension): 5410 ng/mL
- Cmax ([11]; in vivo, mouse Balb c female, PO 150 mg/kg, suspension): 12800 ng/mL
- Cmax ([11]; in vivo, mouse C57BL6 male, PO 30 mg/kg, solution): 1880 ng/mL
- bioavailability ([11]; male, C57BL6, in vivo, po, 10 mg/kg, mouse (m), read-out: Oral F (%)): 53.2%
- Vd ([11]; male, in vivo, Male C57BL6 mouse, 1.0 mg/kg iv, solution, mean n=2): 2.13 L/kg
- Vd ([11]; male, in vivo, mouse (m), intravenous): 2.12 L/kg
- Vd ([11]; male, in vivo, mouse C57BL6 male, IV 1 mg/kg, solution): 2.13 L/kg
- % F Method 3 (Dose * AUC Extrap) [11, 15]: 74.8%
- AUC(0,inf) [11, 15]: 7940 ng·h/mL
- AUC(0-Tlast) [11, 15]: 7940 ng·h/mL
- T1/2 [11, 15]: 1.95 h
- Tmax [11, 15]: 1.25 h
- % F Method 3 (Dose * AUC Extrap) [11, 16]: 84.0%
- AUC(0,inf) [11, 16]: 29800 ng·h/mL
- AUC(0-Tlast) [11, 16]: 29700 ng·h/mL
- T1/2 [11, 16]: 2.01 h
- Tmax [11, 16]: 0.375 h
- % F Method 3 (Dose * AUC Extrap) [11, 17]: 84.0%
- AUC(0,inf) [11, 17]: 89200 ng·h/mL
- AUC(0-Tlast) [11, 17]: 89100 ng·h/mL
- T1/2 [11, 17]: 2.47 h
- Tmax [11, 17]: 0.25 h
- % of dose in feces [11, 18]: 26.0%
- AUC(0,inf) [11, 18]: 708 ng·h/mL
- AUC(0-Tlast) [11, 18]: 706 ng·h/mL
- T1/2 [11, 18]: 3.29 h
- % F Method 3 (Dose * AUC Extrap) [11, 19]: 53.1%
- % of dose in feces [11, 19]: 12.6%
- AUC(0,inf) [11, 19]: 3760 ng·h/mL
- AUC(0-Tlast) [11, 19]: 3760 ng·h/mL
- T1/2 [11, 19]: 2.19 h
- Tmax [11, 19]: 2 h
- % F Method 3 (Dose * AUC Extrap) [11, 20]: 67.4%
- % of dose in feces [11, 20]: 10.8%
- AUC(0,inf) [11, 20]: 14300 ng·h/mL
- AUC(0-Tlast) [11, 20]: 14300 ng·h/mL
- T1/2 [11, 20]: 2.17 h
- Tmax [11, 20]: 2 h
- tolerability ([11]; mouse, oral, highest dose studied (500 mg/kg)): tolerated
- inhibition at 30 µM [12]: 2%
